Tests used:
B16 melanoma cells [1] = assay: Melanin formation prevention test (melanin production and cell proliferation); type: cell-based; conditions: for Degree of cell proliferation: relative to ethanol control
Procedure: B16 melanoma cells were suspended (10,000 cells/ml) in DMEM (Dulbecco's modified eagle medium) containing 10% FBS (fetal bovine serum) and 8 ml of the suspension was added to a cell culture bottle with a 25 cm^2 bottom surface area, and cultured at 37° C. in the presence of 5% carbon dioxide for 3 days. After 3 days of culture, the old medium was exchanged with 8 ml of fresh medium. 40 micro-liters of a sample solution, in which compounds of the present invention had been dissolved in ethanol to give a final concentration shown in the table, were further added thereto. As the control, ethanol only was added. After the medium change, the cells were further cultured for 3 days under the same conditions. After culture was finished, the medium was removed, and the cells were recovered by treatment with trypsin (DIFCO) and suspended in 4 ml of phosphate buffered saline (PBS) and a predetermined amount ( 1/40) of this suspension was used to measure the number of cells in a Coultar counter (Sysmex Co.) to determine the degree of cell proliferation.
The degree of cell proliferation was determined according to the following equations:
Degree of cell proliferation (%)=(number of cells in sample)/(number of cells in control)×100
The remainder of the cell suspension was centrifuged and then washed with 5% trichloroacetic acid, then with ethanol/ethyl ether (3:1 by volume), and with ethyl ether and the cells were dried, and 2N—NaOH was added thereto to dissolve (melanin in) the cells under heating at 70° C. and measured for its optical density (OD) at 420 nm. Using a calibration curve of synthetic melanin, the amount of melanin/million cells was determined from the OD and the degree of inhibition of melanin production was determined according to the following equation:
Degree of inhibition of melanin (%)=(amount of melanin in control−amount of melanin in sample)/(amount of melanin in control)×100

B16 melanoma cells [2] = assay: Combination test with existing tyrosinase inhibitors (method of Test Example 1); type: cell-based; conditions: 0.4 ppm, alone; Table 2, combined use with arbutin
Procedure: B16 melanoma cells were suspended (10,000 cells/ml) in DMEM (Dulbecco's modified eagle medium) containing 10% FBS (fetal bovine serum) and 8 ml of the suspension was added to a cell culture bottle with a 25 cm^2 bottom surface area, and cultured at 37° C. in the presence of 5% carbon dioxide for 3 days. After 3 days of culture, the old medium was exchanged with 8 ml of fresh medium. 40 micro-liters of a sample solution, in which compounds of the present invention had been dissolved in ethanol to give a final concentration shown in the table, were further added thereto. As the control, ethanol only was added. After the medium change, the cells were further cultured for 3 days under the same conditions. […] Degree of cell proliferation (%)=(number of cells in sample)/(number of cells in control)×100 […] Using a calibration curve of synthetic melanin, the amount of melanin/million cells was determined from the OD and the degree of inhibition of melanin production was determined according to the following equation: Degree of inhibition of melanin (%)=(amount of melanin in control−amount of melanin in sample)/(amount of melanin in control)×100 […]

[3] = test system: mushroom-derived tyrosinase; assay: Mushroom tyrosinase inhibition test; type: biochemical; conditions: 25 ppm, L-tyrosine substrate, 37° C. 30 minutes
Procedure: After reaction, the absorbance (OD) at a wavelength of 490 nm was measured and the degree of inhibition of tyrosinase reaction was determined according to the following equation. […] Sample: The buffer, the enzyme solution, the substrate solution and the sample solution Sample-free: The buffer, the enzyme solution and the substrate solution Blank: The buffer and the enzyme solution

[4] = target: T1, tyrosinase in B16 melanoma cells (Mus musculus, UniProt P11344); assay: Test of tyrosinase inhibition in B16 melanoma cells (crude enzyme solution); type: biochemical; conditions: 25 ppm, L-DOPA substrate, 37° C. 3 hours
T1 construct: the resulting supernatant was used as a crude enzyme solution; endogenous in cells; host or cells: B16 melanoma cells (Triton X100 lysate, sonicated, 11,000 G supernatant)
T1 sequence (P11344 19-533): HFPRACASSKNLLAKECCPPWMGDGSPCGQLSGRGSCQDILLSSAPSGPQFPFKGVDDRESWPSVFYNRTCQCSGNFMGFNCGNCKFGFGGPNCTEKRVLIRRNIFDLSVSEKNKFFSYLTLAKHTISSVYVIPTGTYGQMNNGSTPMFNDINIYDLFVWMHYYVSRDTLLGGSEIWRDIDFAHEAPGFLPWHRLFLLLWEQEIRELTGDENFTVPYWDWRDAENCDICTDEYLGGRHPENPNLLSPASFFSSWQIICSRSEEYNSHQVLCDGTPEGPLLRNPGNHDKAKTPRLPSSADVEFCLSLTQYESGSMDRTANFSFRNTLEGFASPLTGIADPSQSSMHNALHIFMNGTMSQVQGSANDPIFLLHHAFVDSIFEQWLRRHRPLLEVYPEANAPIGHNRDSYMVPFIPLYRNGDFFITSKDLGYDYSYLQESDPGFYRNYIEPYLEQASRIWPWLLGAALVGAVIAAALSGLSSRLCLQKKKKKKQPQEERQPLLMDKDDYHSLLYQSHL
Procedure: B16 melanoma cells were cultured for 3 days in DMEM containing 10% FBS at 37° C. in the presence of 5% carbon dioxide. The cells proliferated after culture were recovered by treatment with trypsin, then suspended in PBS containing 0.1% Triton X100 at a density of ten million cells/ml and disrupted by sonication. The product obtained was centrifuged at 11,000 G for 20 minutes, and the resulting supernatant was used as a crude enzyme solution. Added thereto was 0.2 ml of crude enzyme solution. The mixture was preliminarily kept at 37° C. for 5 minutes, and 0.2 ml L-DOPA solution (0.5 mg/ml) was added as the substrate, and the mixture was kept at 37° C. for 3 hours.

[5] = test system: Bacillus subtilis PCI 219 IFO 3134; assay: Anti-bacterial activity test, agar medium dilution method; type: cell-based; conditions: Bs-1
Procedure: (§1) The aerobic microorganisms were examined in an agar medium dilution method and the anaerobic microorganisms were examined in a liquid medium dilution method under anaerobic culture conditions. Muller Hinton agar medium (DIFCO) was heated and dissolved and 10 ml of the medium was introduced into each test tube, sterilized and used. The sample was prepared by dissolving in ethanol and the resulting ethanol solution was diluted 2-fold serially with ethanol, and 100 micro-liters of sample solution were added to 10 ml of each dissolved agar medium, then stirred, introduced into a Petri dish of 9 cm in diameter, and solidified at room temperature. Each test microorganism in a well grown slant was inoculated via one loop of platinum into 10 ml Muller Hinton broth (DIFCO) and cultured with shaking at 27° C. for 24 hours and used as a microbial fluid. This fluid was diluted at 10^8 CFU (Colony forming unit)/ml, and 5 micro-liters of the diluted fluid were inoculated onto the agar and cultured at 37° C. overnight. Inoculation of the microorganism was conducted using microplanter MIT-P for 27 tubes test microorganisms (Sakuma Seisakusho K. K.).

[6] = test system: Corynebacterium minutissimum ATCC 23348; assay: as above; type: cell-based; conditions: Cm-1
Procedure: as §1

[7] = test system: Corynebacterium xerosis JCM 1324; assay: as above; type: cell-based; conditions: Cx-2
Procedure: as §1

[8] = test system: Malassezia furfur IFO 0656; assay: as above; type: cell-based; conditions: Mf-1
Procedure: as §1

[9] = test system: Staphylococcus aureus IFO 12732; assay: as above; type: cell-based; conditions: Sa-3
Procedure: as §1

[10] = test system: Staphylococcus epidermidis JCM 2414; assay: as above; type: cell-based; conditions: Se-1
Procedure: as §1

[11] = test system: Staphylococcus epidermidis var. H-6; assay: as above; type: cell-based; conditions: Se-2
Procedure: as §1

[12] = test system: Propinibadterium Acnes ATCC 12818; assay: Anti-bacterial activity test, liquid medium dilution method (anaerobic); type: cell-based; conditions: Pa-1, anaerobic
Procedure: (§2) The aerobic microorganisms were examined in an agar medium dilution method and the anaerobic microorganisms were examined in a liquid medium dilution method under anaerobic culture conditions. 10 ml GAM broth (Nissui) was introduced into each test tube equipped with a cap and sterilized. 100 micro-liter of the sample solution prepared for agar medium dilution method was added to each test tube and lightly stirred, and 100 micro-liter test microbial solution (10^7 CFU/ml) was added thereto, then capped and incubated at 37° C. The test microbial solution was prepared by introducing 100 micro-liter stock microbial solution into 10 ml GAM broth in a test tube then capping the tube and fermenting it at 37° C. overnight.

[13] = test system: streptococcus mutans JCM 5157; assay: as above; type: cell-based; conditions: Su-1, anaerobic
Procedure: as §2

[14] = test system: UV Ray-induced Pigment Stains; assay: Effect of diminishing UV ray-induced pigment stains in guinea pigs; type: in vivo, brown guinea pigs; conditions: 7% ethanol solution applied once per day on UVB-irradiated skin
Source text: Hair was carefully removed from the back of 5 brown guinea pigs, and a shielding plate provided with four 2.5 cm×2.5 cm openings was attached to the portion from which hair had been removed, followed by irradiating it 3 times every second day with UVB rays at an intensity of 450 mj/cm^2. Immediately after the irradiation of UVB rays, a 70 micro-liters sample was applied onto the irradiated site once per day for 35 days, and the amount of pigment diminished by this treatment was examined on the days shown in Table 5. […]
For evaluation of the activity, each application site was measured by a calorimeter (CR200b, Minolta Co Ltd.). ΔLx is the difference between the L value after the sample application (value changing with time) and the L value of the portion before the sample application started, and then ΔΔL value was determined by subtracting ΔLo value (i.e. the value similarly determined for the portion to which ethanol was applied) from the ΔLx value. The ΔΔL value can be determined according to the equation: […]
Lo: L value of the test site (site to which the sample was applied) before sample application
Lx : L value of the test site (site to which the sample was applied) on Day x after sample application
L′o : L value of the control site (site to which ethanol was applied) before ethanol application
L′x : L value of the control site (site to which ethanol was applied) on Day x after ethanol application

[15] = test system: Human-derived normal skin fibroblasts (NB1RGB); assay: Test of cell activating activity (fibroblast proliferation); type: cell-based; conditions: 8.0 ppm, relative to ethanol control (100)
Procedure: Human-derived normal skin fibroblasts (NB1RGB: Institute of Physical and Chemical Research) were suspended into DMEM containing 10% FBS to give a concentration of 20,000 cells/ml, and 5 ml each of this cellular suspension was introduced into each of 25 cm^2 bottles, cultured at 37° C. in the presence of 5% carbon dioxide for 24 hours. To each bottle, was added 10 micro-liter (0.2%) of the ethanol solution containing the compound to give the final concentration shown in Table 8. The cells were cultured for an additional 3 days. After 3 days the old medium was discarded and 5 ml fresh medium was added, and the sample was further added thereto. After this exchange of the medium, the cells were further cultured for another 3 days. Then cells were removed with trypsin and the number of cells in each bottle was counted with a Coultar counter. Simultaneously, as the control, only ethanol was added and the NB1RGB cells were cultured and the number of cells were counted in the same manner. The number of cells in each bottle to which the sample had been added was determined as a relative value to the number (as 100) of cells in the control after cultured, and the results are shown in Table 8.

CC1=C(CCC(C)CC(=O)O)C2(C)CCCC(C)(C)C2CC1 (stereo not drawn) [Compound 1, labd-8-en-15-oic acid]
Degree of melanin inhibition (B16 melanoma cells [1]; 3.1 ppm, 3 days): 80%
Degree of cell proliferation (B16 melanoma cells [1]; 3.1 ppm): 109%
Degree of cell proliferation (B16 melanoma cells [2]): 115%
Degree of melanin inhibition (B16 melanoma cells [2]): 22%
Degree of inhibition of mushroom tyrosinase [3]: 0%
Degree of inhibition of tyrosinase in B16 melanoma cells [4]: 0%
MIC [5]: 6.3 ppm
MIC [6]: 6.3 ppm
MIC [7]: 12.5 ppm
MIC [8]: 6.3 ppm
MIC [9]: 12.5 ppm
MIC [10]: 6.3 ppm
MIC [11]: 6.3 ppm
MIC [12]: 12.5 ppm
MIC [13]: 6.3 ppm

O=c1cc(CO)occ1O [Kojic acid, reference compound]
Degree of cell proliferation (B16 melanoma cells [1]; 200.00 ppm): 94%
inhibition at 200 ppm (B16 melanoma cells [1]; Mus musculus, 72 h, 200.00 ppm, 3 days, read-out: Degree of melanin inhibition): 34%
ΔΔL ([14]; Day 14): 1.32
ΔΔL ([14]; Day 28): 1.52
ΔΔL ([14]; Day 35): 1.40
Degree of inhibition of mushroom tyrosinase [3]: 67%

labden-15-oic acid [Compound 10]
Degree of melanin inhibition (B16 melanoma cells [1]; 6.3 ppm, 3 days): 83%
Degree of cell proliferation (B16 melanoma cells [1]; 6.3 ppm): 97%
Degree of cell proliferation of fibroblasts [15]: 126%
MIC [5]: 6.3 ppm
MIC [6]: 6.3 ppm
MIC [7]: 6.3 ppm
MIC [8]: 6.3 ppm
MIC [9]: 6.3 ppm
MIC [10]: 6.3 ppm
MIC [11]: 6.3 ppm
MIC [12]: 12.5 ppm
MIC [13]: 6.3 ppm
